In ChEMBL document CHEMBL1125208, “Applications of neural networks in quantitative structure-activity relationships of dihydrofolate reductase inhibitors” (J Med Chem, 1991):

Target: T1, Dihydrofolate reductase (Mus musculus) (UniProt P00375)
T1 sequence (whole entry): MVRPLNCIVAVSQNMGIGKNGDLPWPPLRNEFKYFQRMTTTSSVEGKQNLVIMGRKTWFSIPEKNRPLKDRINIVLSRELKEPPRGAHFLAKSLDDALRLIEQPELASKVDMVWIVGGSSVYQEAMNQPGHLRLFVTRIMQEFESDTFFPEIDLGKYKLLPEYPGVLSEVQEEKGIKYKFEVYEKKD
Test: Inhibition of dihydrofolate reductase from L1210 leukemia tumors

| Compound | Log 1/C |
| --- | --- |
| CC1(C)N=C(N)N=C(N)N1c1ccc(OCCCCNC(=O)c2ccc(S(=O)(=O)F)cc2)c(Cl)c1 | 7.66 |
| CC1(C)N=C(N)N=C(N)N1c1ccc(SCC(=O)Nc2ccc(S(=O)(=O)F)cc2)c(Cl)c1 | 7.42 |
| CN(C)C(=O)c1cccc(NC(=O)NCc2cccc(N3C(N)=NC(N)=NC3(C)C)c2)c1 | 7.77 |
| CC1(C)N=C(N)N=C(N)N1c1cc(Cl)c(OCC(=O)Nc2ccc(S(=O)(=O)F)cc2)c(Cl)c1 | 7.74 |
| COc1cccc(NC(=O)NCc2cccc(N3C(N)=NC(N)=NC3(C)C)c2)c1 | 8.02 |
| CC1(C)N=C(N)N=C(N)N1c1ccc(CCC(=O)Nc2ccc(S(=O)(=O)F)cc2)c(Cl)c1 | 7.62 |
| Cc1cc(NC(=O)NCc2ccc(N3C(N)=NC(N)=NC3(C)C)cc2)ccc1S(=O)(=O)F | 7.72 |
| CC1(C)N=C(N)N=C(N)N1c1ccc(Cl)c(OCCCCCOc2ccc(S(=O)(=O)F)cc2)c1 | 6.72 |
| CC1(C)N=C(N)N=C(N)N1c1ccc(CCCCc2ccc(Cl)c(S(=O)(=O)F)c2)c(Cl)c1 | 8.11 |
| CC1(C)N=C(N)N=C(N)N1c1cccc(OCCCOc2ccc(S(=O)(=O)F)cc2)c1 | 7.96 |
| CC1(C)N=C(N)N=C(N)N1c1cccc(CCCCc2ccc(Cl)c(S(=O)(=O)F)c2)c1 | 8.37 |
| CC1(C)N=C(N)N=C(N)N1c1ccc(OCCCNC(=O)c2ccc(S(=O)(=O)F)cc2)c(Cl)c1 | 7.34 |
| CC1(C)N=C(N)N=C(N)N1c1ccc(OCCCNC(=O)Nc2cccc(S(=O)(=O)F)c2)c(Cl)c1 | 7.28 |
| CC1(C)N=C(N)N=C(N)N1c1cccc(CCCCc2ccc(Cl)cc2Cl)c1 | 8.03 |
| CC1(C)N=C(N)N=C(N)N1c1ccc(OCc2ccc(Cl)c(S(=O)(=O)F)c2)c(Cl)c1 | 8 |
| CC1(C)N=C(N)N=C(N)N1c1cccc(CNC(=O)Nc2cccc([N+](=O)[O-])c2)c1 | 8.1 |
| CC1(C)N=C(N)N=C(N)N1c1ccc(CCCCc2cccc(Cl)c2S(=O)(=O)F)c(Cl)c1 | 8.2 |
| CC1(C)N=C(N)N=C(N)N1c1ccc(OCc2ccccc2C(=O)Nc2ccc(S(=O)(=O)F)cc2)c(Cl)c1 | 7.24 |
| CC1(C)N=C(N)N=C(N)N1c1ccc(OCCOCCOc2ccc(S(=O)(=O)F)cc2)c(Cl)c1 | 7.14 |
| CC1(C)N=C(N)N=C(N)N1c1ccc(CCc2cccc(Cl)c2S(=O)(=O)F)c(Cl)c1 | 8.3 |
| CC1(C)N=C(N)N=C(N)N1c1ccc(OCc2c(Cl)cccc2S(=O)(=O)F)c(Cl)c1 | 7.72 |
| CC1(C)N=C(N)N=C(N)N1c1ccc(CCC(=O)Nc2ccc(S(=O)(=O)F)cc2)cc1 | 7.6 |

| Compound | Log 1/C |
| --- | --- |
| CC1(C)N=C(N)N=C(N)N1c1ccc(CCc2ccc(S(=O)(=O)F)c(Cl)c2)c(Cl)c1 | 7.85 |
| CC1(C)N=C(N)N=C(N)N1c1ccc(OCc2ccc(S(=O)(=O)F)cc2Cl)c(Cl)c1 | 7.44 |
| CC1(C)N=C(N)N=C(N)N1c1ccc(OCc2cccc(S(=O)(=O)F)c2)c(Cl)c1 | 7.72 |
| CC1(C)N=C(N)N=C(N)N1c1ccc(OCC(=O)Nc2cccc(S(=O)(=O)F)c2)c(Cl)c1 | 7.72 |
| CC1(C)N=C(N)N=C(N)N1c1ccc(OCCCCCCOc2ccc(S(=O)(=O)F)cc2)c(Cl)c1 | 7.46 |
| CC1(C)N=C(N)N=C(N)N1c1ccc(OCc2cc(S(=O)(=O)F)ccc2Cl)c(Cl)c1 | 7.38 |
| CC1(C)N=C(N)N=C(N)N1c1cccc(OCC(=O)Nc2ccc(S(=O)(=O)F)cc2)c1 | 6.92 |
| CC1(C)N=C(N)N=C(N)N1c1ccc(CNC(=O)Nc2ccc(S(=O)(=O)F)cc2)cc1 | 7.35 |
| CN(C(=O)COc1ccc(N2C(N)=NC(N)=NC2(C)C)cc1Cl)c1ccc(S(=O)(=O)F)cc1 | 7.47 |
| CC1(C)N=C(N)N=C(N)N1c1ccc(OCC(=O)Nc2ccc(S(=O)(=O)F)cc2)c(Cl)c1 | 7.43 |
| CC1(C)N=C(N)N=C(N)N1c1ccc(OCc2ccc(C(=O)Nc3ccc(S(=O)(=O)F)cc3)cc2)c(Cl)c1 | 6.92 |
| CC1(C)N=C(N)N=C(N)N1c1ccc(CCC(=O)Nc2cccc(S(=O)(=O)F)c2)cc1 | 7.74 |
| CC1(C)N=C(N)N=C(N)N1c1ccc(OCc2ccccc2S(=O)(=O)F)c(Cl)c1 | 7.43 |
| CC1(C)N=C(N)N=C(N)N1c1cccc(CCCCc2cc(Cl)ccc2S(=O)(=O)F)c1 | 7.96 |
| CC1(C)N=C(N)N=C(N)N1c1ccc(CCCCc2ccccc2S(=O)(=O)F)c(Cl)c1 | 7.77 |
| CC1(C)N=C(N)N=C(N)N1c1ccc(OCCCCNC(=O)Nc2cccc(S(=O)(=O)F)c2)c(Cl)c1 | 7.7 |
| CC1(C)N=C(N)N=C(N)N1c1ccc(OCc2cccc(C(=O)Nc3ccc(S(=O)(=O)F)cc3)c2)c(Cl)c1 | 6.92 |
| CC1(C)N=C(N)N=C(N)N1c1ccc(CC(C(=O)Nc2cccc(S(=O)(=O)F)c2)c2ccccc2)cc1 (centres undefined) | 6.89 |
| CC1(C)N=C(N)N=C(N)N1c1ccc(OCCCCCOc2ccc(S(=O)(=O)F)cc2)c(Cl)c1 | 7.57 |
| CC1(C)N=C(N)N=C(N)N1c1ccc(OCc2cccc(Cl)c2S(=O)(=O)F)c(Cl)c1 | 7.42 |
| CC1(C)N=C(N)N=C(N)N1c1ccc(OCCCCOc2ccc(S(=O)(=O)F)cc2)c(Cl)c1 | 7.57 |
| CC1(C)N=C(N)N=C(N)N1c1ccc(Cl)c(CCCCc2ccc(S(=O)(=O)F)cc2)c1 | 6.77 |

| Compound | Log 1/C |
| --- | --- |
| CC1(C)N=C(N)N=C(N)N1c1ccc(SCC(=O)Nc2cccc(S(=O)(=O)F)c2)c(Cl)c1 | 7.66 |
| CC1(C)N=C(N)N=C(N)N1c1cccc(CCCCc2ccc(S(=O)(=O)F)c(Cl)c2)c1 | 7.7 |
| CC1(C)N=C(N)N=C(N)N1c1ccc(CCCCc2ccc(S(=O)(=O)F)cc2Cl)cc1 | 7.96 |
| Cc1cc(NC(=O)NCCOc2ccc(N3C(N)=NC(N)=NC3(C)C)cc2Cl)ccc1S(=O)(=O)F | 7.82 |
| CC1(C)N=C(N)N=C(N)N1c1ccc(CCCCc2cc(Cl)ccc2S(=O)(=O)F)c(Cl)c1 | 7.06 |
| CC1(C)N=C(N)N=C(N)N1c1ccc(Cl)c(OCCCCOc2ccc(S(=O)(=O)F)cc2)c1 | 7.17 |
| CC1(C)N=C(N)N=C(N)N1c1ccc(CCCCc2ccc(S(=O)(=O)F)cc2)cc1 | 7.7 |
| CC1(C)N=C(N)N=C(N)N1c1ccc(OCCCNC(=O)Nc2cccc(S(=O)(=O)F)c2)cc1 | 7.32 |
| CCN(CC)C(=O)NCc1cccc(N2C(N)=NC(N)=NC2(C)C)c1 | 6.11 |
| CC1(C)N=C(N)N=C(N)N1c1cccc(OCCOc2ccc(S(=O)(=O)F)cc2)c1 | 7.82 |
| CC1(C)N=C(N)N=C(N)N1c1ccc(OCCCC(=O)Nc2cccc(S(=O)(=O)F)c2)c(Cl)c1 | 7.17 |
| CC1(C)N=C(N)N=C(N)N1c1ccc(OCc2ccc(S(=O)(=O)F)cc2)c(Cl)c1 | 7.58 |
| CC1(C)N=C(N)N=C(N)N1c1ccc(CNC(=O)Nc2ccc(S(=O)(=O)F)cc2)c(Cl)c1 | 7.92 |
| CC1(C)N=C(N)N=C(N)N1c1ccc(OCc2cccc(C(=O)Nc3cccc(S(=O)(=O)F)c3)c2)c(Cl)c1 | 7.24 |
| CC1(C)N=C(N)N=C(N)N1c1ccc(CCc2ccc(S(=O)(=O)F)cc2Cl)c(Cl)c1 | 8.33 |
| CC1(C)N=C(N)N=C(N)N1c1ccc(OCc2ccc(C(=O)Nc3cccc(S(=O)(=O)F)c3)cc2)c(Cl)c1 | 7.41 |
| CC1(C)N=C(N)N=C(N)N1c1cccc(CCc2ccc(S(=O)(=O)F)cc2)c1 | 8.1 |
| CC1(C)N=C(N)N=C(N)N1c1cccc(OCCCCOc2ccc(S(=O)(=O)F)cc2)c1 | 7.49 |
| CC1(C)N=C(N)N=C(N)N1c1ccc(CCCCc2ccc(Cl)cc2Cl)cc1 | 7.92 |
| CC1(C)N=C(N)N=C(N)N1c1ccc(OCc2ccc(COc3ccc(S(=O)(=O)F)cc3)cc2)c(Cl)c1 | 6.82 |
